Test results from patent publication US11389447B2 (Janssen Sciences Ireland Unlimited Company, priority 2006, dated 2022).

Assay: Kinetic study: plasma kinetics of TMC278 after single IM or SC injection of a nanosuspension;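 also: healthy male beagle dogs injected in both biceps femoris muscles (IM) or both thoracal sides (SC), total volume 0.2 mL/kg, drug measured in plasma from blood samples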
Type: in vivo, male beagle dogs
Conditions: for AUC0-312 h / AUC0-696 h / AUC0-2208 h / Cmax / Tmax / plasma concentration of TMC278: single IM 5 mg eq./kg TMC278.HCl nanosuspension
Experimental: Six healthy male beagle dogs with body weights ranging from 8 to 16 kg at the start of the study, were used. Each dog was identified by an ear tattoo number. Two dogs were dosed intramuscularly (IM) in the left and right m. biceps femoris (treatment group A). […] Two dogs were dosed subcutaneously (SC) in the left and right thoracal region. The injection volume was 2×0.1 ml/kg in all treatment groups. A 20 G needle was used.
Blood samples of 3 ml were taken from the left jugular vein from all dogs on day 0 at 0 h (predose), 20 min, 1 h, 3 h, 8 h and 24 h post-dose and further on days 2, 3, 6, 8, 10, 13, 16, 20, 23, 27, 29, 36, 43, 50, 57, 64, 71, 78, 85 and 92 at approximately 8 AM. Blood samples were placed on EDTA, EDTA Vacuette Greiner, Cat. No. 454086, Greiner Labortechnik N.V.). Within 2 h of blood sampling, samples were centrifuged at room temperature at about 1900×g for 10 minutes to allow plasma separation. Plasma was immediately transferred into a second tube and stored in the freezer within 2 hours after the start of centrifugation.

Cc1cc(/C=C/C#N)cc(C)c1Nc1ccnc(Nc2ccc(C#N)cc2)n1.Cl [TMC278.HCl]
blood plasma levels after injection (in words) (injectable formulation of nanonised substance, 5 mg/kg, male beagle dogs): stable blood plasma levels during a prolonged period of time | AUC0-312 h (dog 19072): 15000 ng·h/mL | AUC0-696 h (dog 19072): 20300 ng·h/mL | AUC0-2208 h (dog 19072): 27400 ng·h/mL | Cmax (dog 19072): 85.6 ng/mL | Tmax (dog 19072): 48 h | plasma concentration of TMC278 (dog 19072, 0 h (d0, predose)): <1.00 ng/mL | plasma concentration of TMC278 (dog 19072, 1 h): 7.80 ng/mL | plasma concentration of TMC278 (dog 19072, 3 h): 14.7 ng/mL | plasma concentration of TMC278 (dog 19072, 8 h): 32.2 ng/mL | plasma concentration of TMC278 (dog 19072, 24 h (d1)): 50.1 ng/mL | plasma concentration of TMC278 (dog 19072, 48 h (d2)): 85.6 ng/mL | plasma concentration of TMC278 (dog 19072, 72 h (d3)): 47.5 ng/mL | plasma concentration of TMC278 (dog 19072, 144 h (d6)): 48.3 ng/mL | plasma concentration of TMC278 (dog 19072, 192 h (d8)): 46.8 ng/mL | plasma concentration of TMC278 (dog 19072, 240 h (d10)): 55.7 ng/mL | plasma concentration of TMC278 (dog 19072, 312 h (d13)): 27.0 ng/mL | plasma concentration of TMC278 (dog 19072, 384 h (d16)): 17.0 ng/mL | plasma concentration of TMC278 (dog 19072, 480 h (d20)): 13.7 ng/mL | plasma concentration of TMC278 (dog 19072, 648 h (d27)): 7.91 ng/mL | plasma concentration of TMC278 (dog 19072, 696 h (d29)): 10.2 ng/mL | plasma concentration of TMC278 (dog 19072, 864 h (d36)): 6.18 ng/mL | plasma concentration of TMC278 (dog 19072, 1032 h (d43)): 6.32 ng/mL | plasma concentration of TMC278 (dog 19072, 1200 h (d50)): 4.56 ng/mL | plasma concentration of TMC278 (dog 19072, 1368 h (d57)): 4.73 ng/mL | plasma concentration of TMC278 (dog 19072, 1536 h (d64)): 4.47 ng/mL | plasma concentration of TMC278 (dog 19072, 1704 h (d71)): 3.38 ng/mL | plasma concentration of TMC278 (dog 19072, 1872 h (d78)): 3.12 ng/mL | plasma concentration of TMC278 (dog 19072, 2040 h (d85)): 3.20 ng/mL | plasma concentration of TMC278 (dog 19072, 2208 h (d92)): 2.96 ng/mL | AUC0-312 h (dog 19080): 20900 ng·h/mL | AUC0-696 h (dog 19080): 30500 ng·h/mL | AUC0-2208 h (dog 19080): 39900 ng·h/mL | Cmax (dog 19080): 105 ng/mL | Tmax (dog 19080): 48 h | plasma concentration of TMC278 (dog 19080, 0 h (d0, predose)): <1.00 ng/mL | plasma concentration of TMC278 (dog 19080, 1 h): 7.19 ng/mL | plasma concentration of TMC278 (dog 19080, 3 h): 16.3 ng/mL | plasma concentration of TMC278 (dog 19080, 8 h): 27.1 ng/mL | plasma concentration of TMC278 (dog 19080, 24 h (d1)): 69.8 ng/mL | plasma concentration of TMC278 (dog 19080, 48 h (d2)): 105 ng/mL | plasma concentration of TMC278 (dog 19080, 72 h (d3)): 69.5 ng/mL | plasma concentration of TMC278 (dog 19080, 144 h (d6)): 62.3 ng/mL | plasma concentration of TMC278 (dog 19080, 192 h (d8)): 65.8 ng/mL | plasma concentration of TMC278 (dog 19080, 240 h (d10)): 82.2 ng/mL | plasma concentration of TMC278 (dog 19080, 312 h (d13)): 45.8 ng/mL | plasma concentration of TMC278 (dog 19080, 384 h (d16)): 31.9 ng/mL | plasma concentration of TMC278 (dog 19080, 480 h (d20)): 25.5 ng/mL | plasma concentration of TMC278 (dog 19080, 648 h (d27)): 14.4 ng/mL | plasma concentration of TMC278 (dog 19080, 696 h (d29)): 18.8 ng/mL | plasma concentration of TMC278 (dog 19080, 864 h (d36)): 11.4 ng/mL | plasma concentration of TMC278 (dog 19080, 1032 h (d43)): 8.18 ng/mL | plasma concentration of TMC278 (dog 19080, 1200 h (d50)): 5.68 ng/mL | plasma concentration of TMC278 (dog 19080, 1368 h (d57)): 5.08 ng/mL | plasma concentration of TMC278 (dog 19080, 1536 h (d64)): 4.43 ng/mL | plasma concentration of TMC278 (dog 19080, 1704 h (d71)): 3.90 ng/mL | plasma concentration of TMC278 (dog 19080, 1872 h (d78)): 3.20 ng/mL | plasma concentration of TMC278 (dog 19080, 2040 h (d85)): 4.00 ng/mL | plasma concentration of TMC278 (dog 19080, 2208 h (d92)): 2.81 ng/mL | AUC0-312 h (mean of 2 dogs): 18000 ng·h/mL | AUC0-696 h (mean of 2 dogs): 25400 ng·h/mL | AUC0-2208 h (mean of 2 dogs): 33600 ng·h/mL | Cmax (mean of 2 dogs): 95.3 ng/mL | Tmax (mean of 2 dogs): 48 h | plasma concentration of TMC278 (mean of 2 dogs, 0 h (d0, predose)): <1.00 ng/mL | plasma concentration of TMC278 (mean of 2 dogs, 1 h): 7.50 ng/mL | plasma concentration of TMC278 (mean of 2 dogs, 3 h): 15.5 ng/mL | plasma concentration of TMC278 (mean of 2 dogs, 8 h): 29.7 ng/mL | plasma concentration of TMC278 (mean of 2 dogs, 24 h (d1)): 60.0 ng/mL | plasma concentration of TMC278 (mean of 2 dogs, 48 h (d2)): 95.3 ng/mL | plasma concentration of TMC278 (mean of 2 dogs, 72 h (d3)): 58.5 ng/mL | plasma concentration of TMC278 (mean of 2 dogs, 144 h (d6)): 55.3 ng/mL | plasma concentration of TMC278 (mean of 2 dogs, 192 h (d8)): 56.3 ng/mL | plasma concentration of TMC278 (mean of 2 dogs, 240 h (d10)): 69.0 ng/mL | plasma concentration of TMC278 (mean of 2 dogs, 312 h (d13)): 36.4 ng/mL | plasma concentration of TMC278 (mean of 2 dogs, 384 h (d16)): 24.5 ng/mL | plasma concentration of TMC278 (mean of 2 dogs, 480 h (d20)): 19.6 ng/mL | plasma concentration of TMC278 (mean of 2 dogs, 648 h (d27)): 11.2 ng/mL | plasma concentration of TMC278 (mean of 2 dogs, 696 h (d29)): 14.5 ng/mL | plasma concentration of TMC278 (mean of 2 dogs, 864 h (d36)): 8.79 ng/mL | plasma concentration of TMC278 (mean of 2 dogs, 1032 h (d43)): 7.25 ng/mL | plasma concentration of TMC278 (mean of 2 dogs, 1200 h (d50)): 5.12 ng/mL | plasma concentration of TMC278 (mean of 2 dogs, 1368 h (d57)): 4.91 ng/mL | plasma concentration of TMC278 (mean of 2 dogs, 1536 h (d64)): 4.45 ng/mL | plasma concentration of TMC278 (mean of 2 dogs, 1704 h (d71)): 3.64 ng/mL | plasma concentration of TMC278 (mean of 2 dogs, 1872 h (d78)): 3.16 ng/mL | plasma concentration of TMC278 (mean of 2 dogs, 2040 h (d85)): 3.60 ng/mL | plasma concentration of TMC278 (mean of 2 dogs, 2208 h (d92)): 2.89 ng/mL
